Reference: PubChem BioAssay (NCI)
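Cultured in 96-well plates, cells were exposed to test compound for 48 hours across five concentrations. At the GI50, growth is halved. Definition used: TGI = concentration required for complete inhibition of growth.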

Key:
Test in all cases: growth of human tumour cells (NCI), 48 h
[1] = test system: COLO 205 colon
[2] = test system: SF-295 CNS
[3] = test system: OVCAR-8 ovarian
[4] = test system: OVCAR-4 ovarian
[5] = test system: T-47D breast
[6] = test system: SF-539 CNS
[7] = test system: NCI-H460 lung
[8] = test system: LOX IMVI melanoma
[9] = test system: HS 578T breast
[10] = test system: HCC-2998 colon

| SMILES | GI50 [1] | TGI [1] | GI50 [2] | TGI [2] | GI50 [3] | TGI [3] | GI50 [4] | TGI [4] | GI50 [5] | TGI [5] | GI50 [6] | TGI [6] | GI50 [7] | TGI [7] | GI50 [8] | TGI [8] | GI50 [9] | TGI [9] | GI50 [10] | TGI [10] |
| --- | --- | --- | --- | --- | --- | --- | --- | --- | --- | --- | --- | --- | --- | --- | --- | --- | --- | --- | --- | --- |
| COc1ccc(-n2c(C)cc(-c3ccccc3)c2C)cc1 | 2.42 µM | 5.95 µM | 2.2 µM | 7.58 µM | 3.51 µM | 38 µM | 2.46 µM | > 100 µM | 1.65 µM | 67.2 µM | 2.96 µM | 17.4 µM | 3.13 µM | 18.9 µM | 2.55 µM | 11.9 µM | 4.58 µM | > 100 µM | 3.04 µM | 11.4 µM |
| CCn1c(=O)c2c(=O)c3c4c(oc3oc2c2ccccc21)C(=O)c1ccccc1C4=O | > 100 µM | > 100 µM | > 24.2 µM | > 100 µM | 3.3 µM | > 100 µM | 0.376 µM | 1.5 µM | 0.372 µM | 2.87 µM | 3.32 µM | > 100 µM | > 100 µM | > 100 µM |  | > 100 µM | 19.2 µM | > 100 µM | > 100 µM | > 100 µM |
| O=C(Nc1ccc(F)cc1)c1cc(S(=O)(=O)Nc2nc3ccccc3o2)c(SCc2ccccc2)cc1Cl | 46.2 µM | > 100 µM | 15 µM | 29.2 µM | 17.7 µM | 36 µM | 26.9 µM | 60.9 µM | 28.3 µM | > 100 µM | 17.1 µM | 31.2 µM | 19.1 µM | 43.5 µM | 18 µM | 34.2 µM | 19.1 µM | 44.5 µM | 18.4 µM | 32.6 µM |
| O=C1NC(=O)/C(=C\c2ccccc2)C2=C1CCCC2 | 3.86 µM | 14.6 µM | 3.98 µM | 17.6 µM | 9.92 µM | 41.1 µM | 14.8 µM | 29.2 µM | 10.2 µM | 29.9 µM | 11.6 µM | 24.1 µM | 16.3 µM | 36 µM | 1.85 µM | 4.06 µM | 3.46 µM | 22.8 µM | 7.46 µM | 14 µM |
| OCCCNc1nccc(-c2c(-c3ccc(F)cc3)nn3cc(C(F)(F)F)ccc23)n1 | 12.5 µM | > 25 µM | 10.3 µM | > 25 µM | 16.9 µM | > 25 µM | 10.8 µM | > 25 µM | 8.42 µM | > 23.4 µM | > 25 µM | > 25 µM | 9.12 µM | > 25 µM | 15.3 µM | > 25 µM | 19.2 µM | > 25 µM | > 23.4 µM | > 25 µM |
| CN(CCO)c1ccc(N2Cc3ccccc3OC3=C2C(=O)c2c(O)ccc(O)c2C3=O)cn1 | 0.133 µM | 0.302 µM | 1.41 µM | 3.52 µM | 0.307 µM | 3.49 µM | 0.173 µM | 0.343 µM | 0.176 µM | 0.577 µM | 0.214 µM | 0.524 µM | 0.355 µM | 1.35 µM | 0.114 µM | 0.33 µM | 0.418 µM | > 100 µM | 0.249 µM | 0.608 µM |
| N#CC1=C(N)Oc2cc(O)ccc2C1c1cccc2ccccc12 (centres undefined) | 16.5 µM | 38.2 µM | 7.28 µM | 25.6 µM | 23.7 µM | 66.1 µM | 13.1 µM | 31.5 µM | 17.2 µM | 58.7 µM | 16.5 µM | 36.5 µM | 12.4 µM | 32.5 µM | 14.8 µM | 35.4 µM | 16.6 µM | 73 µM | 3 µM | 13.9 µM |
| COc1ccc(-c2coc3c4c(ccc3c2=O)OCO4)cc1OC |  | > 100 µM |  | > 100 µM |  | > 100 µM |  | > 100 µM |  | > 100 µM |  | > 100 µM |  | > 100 µM |  | > 100 µM |  | > 100 µM |  | > 100 µM |
| CCN(Cc1ccccc1C)c1ccc(CO)c(Cl)c1 | 13.3 µM | 28.2 µM | 4.15 µM | 16.9 µM | 15.8 µM | 48.9 µM | 1.26 µM | 11.8 µM | 0.244 µM | 2.19 µM | 15 µM | 29.5 µM | 0.821 µM | 12.7 µM | 17.6 µM | 33 µM | 16 µM | 42.3 µM | 14.4 µM | 30.6 µM |
| O[C@H](c1cc(C(F)(F)F)nc2c(C(F)(F)F)cccc12)[C@@H]1CCCCN1 | 1.98 µM | 4.27 µM | 2.08 µM | 5.36 µM | 5.11 µM | 14.7 µM | 4.45 µM | 15 µM | 3.82 µM | 16 µM | 6.43 µM | 15 µM | 2.28 µM | 5.28 µM | 1.51 µM | 2.99 µM | 4.35 µM | 25.5 µM | 1.85 µM | 4.13 µM |
| O=C(CSC1CCc2ccccc21)N/N=C/c1ccccc1O (centres undefined) | 5.87 µM | > 100 µM | 6.84 µM | > 100 µM | 3.66 µM | > 100 µM | 1.55 µM | 92.5 µM | 7.04 µM | > 100 µM | 3.03 µM | 17.2 µM | 3.4 µM | 14.6 µM | 2.37 µM | 21.5 µM | 11.7 µM | 67.2 µM | 5.59 µM | 35.4 µM |
| C=C1C(=O)O[C@H]2[C@H]1CC/C(COC(=O)/C=C\C(=O)NCc1ccc(Cn3c(=O)sn(CCCC)c3=O)cc1)=C\CC[C@@]1(C)O[C@@H]21 | 0.581 µM | 2.37 µM | 1.73 µM | 3.24 µM | 0.828 µM | 3.32 µM | 0.626 µM | 1.87 µM | 1.27 µM | 4.22 µM | 1.18 µM | 2.42 µM | 1.27 µM | 2.73 µM | 0.179 µM | 0.379 µM | 1.3 µM | 3.32 µM | 1.64 µM | 3.19 µM |
| CC1=NC(=Cc2cc(Br)cc(Br)c2)C(=O)N1n1c(-c2ccccc2)nc2ccccc2c1=O |  | > 100 µM |  | > 100 µM |  | > 100 µM |  | > 100 µM |  | > 100 µM |  | > 100 µM |  | > 100 µM |  | > 100 µM |  | > 100 µM |  | > 100 µM |
| CCN1CCC(O)(/C=C/c2ccc(C)cc2)C(C(=O)/C=C/c2ccc(C)cc2)C1 (centres undefined) |  | 4.45 µM |  | 22.9 µM |  | 7.54 µM |  | 23 µM |  | 9.89 µM |  | 10.3 µM |  | 16.7 µM |  | 2.59 µM |  | 7.55 µM |  | 5.08 µM |
| COc1ccc(-c2ccc(-c3ccc(C(=N)N)s3)s2)cc1 | 0.309 µM | 0.916 µM | 0.188 µM | 0.395 µM | 0.219 µM | 0.5 µM | 0.187 µM | 0.399 µM | 0.243 µM | 0.596 µM | 0.188 µM | 0.346 µM | 0.192 µM | 0.364 µM | 0.191 µM | 0.382 µM | 0.295 µM | 1.41 µM | 0.273 µM | 0.699 µM |
| CCOC(=O)c1c(NC(=O)c2cccc(C(F)(F)F)c2)sc2c(CN(C)C)c(O)ccc12 | 2.1 µM | 4.66 µM | 2.83 µM | 9.2 µM | 6.12 µM | 18.8 µM | 9.85 µM | 21.5 µM | 3.74 µM | 21.4 µM | 3.41 µM | 12.4 µM | 2.19 µM | 4.76 µM | 2.7 µM | 7.52 µM | 6.78 µM | 26.4 µM | 1.77 µM | 3.77 µM |
| COc1cc(OC)c(/C=C/c2c3ccccc3cc[n+]2C)c(OC)c1 | 0.774 µM | 2.95 µM | 2.17 µM | > 53.4 µM | 2.27 µM | 12.4 µM | 1.15 µM | > 100 µM | 0.541 µM | > 26.2 µM | 2.1 µM | 9.17 µM | 1.82 µM | 8.83 µM | 2.01 µM | 5.9 µM | 2.43 µM | 37.5 µM | 1.65 µM | 14.7 µM |
